Assay results from ChEMBL document CHEMBL5357010, “Amine Basicity of Quinoline ATP Synthase Inhibitors Drives Antibacterial Activity against Pseudomonas aeruginosa” (ACS Med Chem Lett, 2024).
Values after ≈ are worked out from the molar mass of the structure shown.

Legend:
[1] = Inhibition of Pseudomonas aeruginosa ATP synthase expressed in Escherichia coli DK8/pASH20 inverted membrane vesicles by luciferin/luciferase luminescence assay; assay type: cell membranes, Membrane vesicle
[2] = Inhibition of Pseudomonas aeruginosa 9027 electron transport chain in inverted membrane vesicles assessed as fluorescence quenching using amino-6-chloro-2-methoxyacridine; assay type: cell membranes
[3] = Selectivity ratio of IC50 for Pseudomonas aeruginosa 9027 electron transport chain to IC50 for Pseudomonas aeruginosa ATP synthase; assay type: toxicity
[4] = Inhibition of Escherichia coli electron transport chain in inverted membrane vesicles; assay type: cell membranes
Pseudomonas aeruginosa [5] = assay: Antibacterial activity against Pseudomonas aeruginosa ATCC BAA-2109 assessed as growth inhibition incubated for 12 to 15 hrs by broth microdilution method; assay type: functional; settings: time 12-15 hrs
Pseudomonas aeruginosa [6] = assay: Antibacterial activity against Pseudomonas aeruginosa efflux knockout GKCW120 (Pdelta6) assessed as growth inhibition incubated for 12 to 15 hrs by broth microdilution method; assay type: functional; settings: time 12-15 hrs
Pseudomonas aeruginosa [7] = assay: Antibacterial activity against Pseudomonas aeruginosa ATCC BAA-2108 assessed as growth inhibition incubated for 12 to 15 hrs by broth microdilution method; assay type: functional; settings: time 12-15 hrs
Pseudomonas aeruginosa [8] = assay: Antibacterial activity against Pseudomonas aeruginosa ATCC BAA-2110 assessed as growth inhibition incubated for 12 to 15 hrs by broth microdilution method; assay type: functional; settings: time 12-15 hrs
Pseudomonas aeruginosa [9] = assay: Antibacterial activity against Pseudomonas aeruginosa 9027 assessed as growth inhibition incubated for 12 to 15 hrs by broth microdilution method; assay type: functional; settings: time 12-15 hrs
[10] = Solubility of the compound in antibacterial activity assay medium; assay type: physicochemical

| Compound | IC50 [1] | IC50 [2] | Ratio IC50 [3] | further results |
| --- | --- | --- | --- | --- |
| CN(C)CCCCNCc1cc2ccccc2nc1SCc1ccccc1 | 1 µg/mL (≈ 2.63 µM) | 26 µg/mL (≈ 68.5 µM) | 26 |  |
| c1ccc(CSc2nc3ccccc3cc2CNCCc2cnc[nH]2)cc1 | 2 µg/mL (≈ 5.34 µM) | 7 µg/mL (≈ 18.7 µM) |  | IC50 [4]: 14 µg/mL (≈ 37.4 µM) |
| CN(C)CCCNCc1cc2ccccc2nc1SCc1ccccc1 | 6 µg/mL (≈ 16.4 µM) | 44 µg/mL (≈ 120 µM) | 7 |  |
| CSc1nc2ccccc2cc1CNCCCN(C)C | 43 µg/mL (≈ 149 µM) |  |  |  |
| CCN1CCC(CCNCc2cc3ccccc3nc2SCc2ccccc2)CC1 | 1 µg/mL (≈ 2.38 µM) | 26 µg/mL (≈ 62 µM) | 26 |  |
| CSc1nc2ccccc2cc1CNCCCCN(C)C | 68 µg/mL (≈ 224 µM) |  |  |  |
| CSc1nc2ccccc2cc1CNCCc1cccn1C | 5 µg/mL (≈ 16.1 µM) |  |  |  |
| CSc1nc2ccccc2cc1CNCCC1CCN(C2CCCC2)CC1 | 21 µg/mL (≈ 54.7 µM) |  |  |  |
| CSc1nc2ccccc2cc1CNCCc1nc(C)cc(C)n1 | 67 µg/mL (≈ 198 µM) |  |  |  |
| CSc1nc2ccccc2cc1CNCCc1cnc[nH]1 | 16 µg/mL (≈ 53.6 µM) |  |  |  |
| CSc1nc2ccccc2cc1CNCc1ccc(CN(C)C)cc1 | 30 µg/mL (≈ 85.3 µM) | 29 µg/mL (≈ 82.5 µM) | 1 | MIC>85 (Pseudomonas aeruginosa [5]): 256 µg/mL (≈ 728 µM); MIC>85 (Pseudomonas aeruginosa [6]): 64 µg/mL (≈ 182 µM); MIC>85 (Pseudomonas aeruginosa [7]): 128 µg/mL (≈ 364 µM); MIC>85 (Pseudomonas aeruginosa [8]): >256 µg/mL; MIC>85 (Pseudomonas aeruginosa [9]): >256 µg/mL |
| Cn1cccc1CCNCc1cc2ccccc2nc1SCc1ccccc1 | 4 µg/mL (≈ 10.3 µM) |  |  |  |
| CCN1CCC(CCNCc2cc3ccccc3nc2SC)CC1 | 39 µg/mL (≈ 114 µM) |  |  |  |
| CN(C)c1ccc(CNCc2cc3ccccc3nc2SCc2ccccc2)cc1 |  |  |  | solubility [10]: > 16 µg/mL |
| Cc1cc(C)nc(CCNCc2cc3ccccc3nc2SCc2ccccc2)n1 | 3 µg/mL (≈ 7.24 µM) |  |  |  |
| CN(C)Cc1ccc(CNCc2cc3ccccc3nc2SCc2ccccc2)cc1 | 2.3 µg/mL (≈ 5.38 µM) | 27 µg/mL (≈ 63.1 µM) | 12 | MIC>85 (Pseudomonas aeruginosa [5]): >128 µg/mL; MIC>85 (Pseudomonas aeruginosa [6]): 16 µg/mL (≈ 37.4 µM); MIC>85 (Pseudomonas aeruginosa [7]): 64 µg/mL (≈ 150 µM); MIC>85 (Pseudomonas aeruginosa [8]): >128 µg/mL; MIC>85 (Pseudomonas aeruginosa [9]): >128 µg/mL |
| CN(C)CCCCCNCc1cc2ccccc2nc1SCc1ccccc1 | 2 µg/mL (≈ 5.08 µM) | 57 µg/mL (≈ 145 µM) | 28 |  |
| CSc1nc2ccccc2cc1CNCCCCCN(C)C | 19 µg/mL (≈ 59.8 µM) |  |  |  |
| GENTAMICIN |  |  |  | MIC>85 (Pseudomonas aeruginosa [5]): 2 µg/mL; MIC>85 (Pseudomonas aeruginosa [6]): > 4 µg/mL; MIC>85 (Pseudomonas aeruginosa [7]): 16 µg/mL; MIC>85 (Pseudomonas aeruginosa [8]): 4 µg/mL; MIC>85 (Pseudomonas aeruginosa [9]): 2 µg/mL |
| c1ccc(CSc2nc3ccccc3cc2CNCCC2CCN(C3CCCC3)CC2)cc1 | 1 µg/mL (≈ 2.18 µM) | 14 µg/mL (≈ 30.5 µM) | 14 |  |
| CSc1nc2ccccc2cc1CNCc1ccc(N(C)C)cc1 | 5 µg/mL (≈ 14.8 µM) |  |  |  |
